One assay concerns CHO-K1 cells. Put plainly: Adaptation of CHO-K1 cells into HyQ PF-CHO media with different disaccharides. It counts as cell-based, Chinese Hamster. Particulars: 3.6 g/l sugar. As for the experimental part:
Viable cell density and culture viability were determined by Trypan blue dye exclusion method using Vi-Cell XR Cell Viability Analyzer (Beckman Coulter, Brea, CA) according to manufacturer's instructions. For biochemical and other cell culture parameter analyses, 1 ml of culture sample was centrifuged at 8000 g for 10 minutes to obtain clarified supernatant. […] At each passage during the adaptation process, viable cell density and culture viability before passage and after inoculation into fresh media were determined. […] Osmolality of these culture media were determined to be between 308 and 324 mOsm/kg, well within the range for optimal mammalian cell culture. The viable cell densities and culture viabilities of these cultures at the beginning and end of each passage over a period of 74 days are shown in FIG. 1. […] However, culture viabilities and viable cell densities of the maltose culture started to pick up on Day 14. Proliferation of the cells in maltose culture then maintained over the period of the time studied, while those in the other disaccharides were terminated on Day 31 due to the lack of cell growth and depressed culture viabilities.

The next assay relates to SH87 cells. Put plainly: SH87 fed-batch bioreactor cultures in PFCDM. It counts as cell-based, Chinese Hamster. As for the experimental part: For each culture condition to be tested, SH87 was scaled up in PFCDM and inoculated into duplicate two (2) liter glass bioreactors (Sartorius, Germany) at a viable cell density of 3×10^5 cells/ml. Culture temperature, pH, dissolved oxygen and stir rate were maintained at 37° C., 7.1, 50% and 120 rpm respectively. The culture set points for glucose and glutamine were 0.5 g/l and 0.5 mM respectively, and predictive feeding was used to maintain these concentration levels by the addition of a concentrated DMEM-based protein-free feed and a 150 g/l glucose solution. Cell culture samples were collected and analyzed daily throughout the duration of the growth profile experiment until culture viabilities fell below 50%. When necessary, culture supernatant samples were stored at −20° C. for further analysis.
Since fed-batch culture is a popular mode for the manufacturing of monoclonal antibodies, the use of maltose in fed-batch cultures was evaluated. […] As such, it was evaluated whether maltose can be used to supplement glucose in fed-batch cultures to drive the cells towards a slower but more efficient metabolism: Using a common glucose concentration setpoint of 0.5 g/l, SH87 in media supplemented with 4 g/l glucose and 20 g/l maltose was fed daily with 50% of its calculated glucose requirement, while cultures of the same cells in media containing 4 g/l glucose was fed daily with 100% of its calculated glucose requirement. Duplicate bioreactor cultures were performed for each condition and the growth, biochemical and IgG titer profiles of these cultures were plotted in FIG. 7.
Additionally, the present disclosure investigated whether maltose supplementation in the feed medium can have further effect on fed-batch cultures with maltose-supplemented base medium. Using a common glucose concentration setpoint of 0.5 g/l, SH87 in media supplemented with 4 g/l glucose and 20 g/l maltose was fed daily with 50% of its calculated glucose requirement, using a sugar feed consisting of only glucose, or of glucose and maltose in a 1:1 ratio.

The structures appear in SMILES notation.

In the case of `OC[C@H]1O[C@H](O[C@H]2[C@H](O)[C@@H](O)[C@H](O)O[C@@H]2CO)[C@H](O)[C@@H](O)[C@@H]1O` [maltose], the “day on which culture viabilities and viable cell densities started to pick up” value with CHO-K1 cells worked out at 14 days. The “proliferation in serum-free protein-free culture medium with the sugar as sugar source” value with CHO-K1 cells (seeding 0.3×10^6 cells/ml, 74 days) is given as “can proliferate”. Moreover, in the assay on SH87 cells (base 4 g/l glucose + 20 g/l maltose, feed glucose and maltose 1:1 vs glucose only), the “effect of additional maltose in the feed medium on cell growth, viability, glutamine, osmolality and IgG titer profiles” value is “no additional effect”. In the assay on SH87 cells (fed-batch bioreactor), the “improvement in maximum IgG titers vs glucose-only fed-batch cultures” value amounted to 23% and the “improvement in specific IgG productivities vs glucose-only fed-batch cultures” value was 55%.
